# Experimental data taken from US9757337B2, “Multicompartmental lipid nanoparticles” (CENTRE NATIONAL DE LA RECHERCHE SCIENTIFIQUE—CNRS, priority 2013, dated 2017).
# Assay: Stability of quercetin in various fluids quantified by HPLC assay
# Format: physicochemical
# Description: To this end, the stability of quercetin in various fluids was quantified by means of an HPLC assay. The various fluids studied were simulated gastric fluid (SGF, US Pharmacopeia) at room temperature and at 37° C., simulated intestinal fluid (SIF, US Pharmacopeia), 10 mM HEPES buffer (pH 7.4) and room-temperature water.
compound,measurement,setting,value
O=c1c(O)c(-c2ccc(O)c(O)c2)oc2cc(O)cc(O)c12 [quercetin],stability in more acidic fluids compared with room-temperature water,"more acidic fluids (SGF), samples over 24 hours",more stable
same,quercetin degraded,"room-temperature water, within 17 hours",about 50%
